# Results as given in ChEMBL document CHEMBL2074393, “Impact of Mrp2 on the biliary excretion and intestinal absorption of furosemide, probenecid, and methotrexate using Eisai hyperbilirubinemic rats” (Pharm Res, 2003).
# Tests used:
# [1] = molecular target: T1, ATP-binding cassette sub-family C member 2 (Rattus norvegicus, UniProt Q63120); experiment: TP_TRANSPORTER: In vivo biliary excretion of SDR rat; format: functional, organism-based, Sprague-Dawley, Bile
# [2] = molecular target: T1, ATP-binding cassette sub-family C member 2; experiment: TP_TRANSPORTER: In vivo biliary excretion in vivo, biliary excretion of SDR and EHBR rat; format: functional, organism-based, Bile
# T1 sequence (Q63120 whole entry): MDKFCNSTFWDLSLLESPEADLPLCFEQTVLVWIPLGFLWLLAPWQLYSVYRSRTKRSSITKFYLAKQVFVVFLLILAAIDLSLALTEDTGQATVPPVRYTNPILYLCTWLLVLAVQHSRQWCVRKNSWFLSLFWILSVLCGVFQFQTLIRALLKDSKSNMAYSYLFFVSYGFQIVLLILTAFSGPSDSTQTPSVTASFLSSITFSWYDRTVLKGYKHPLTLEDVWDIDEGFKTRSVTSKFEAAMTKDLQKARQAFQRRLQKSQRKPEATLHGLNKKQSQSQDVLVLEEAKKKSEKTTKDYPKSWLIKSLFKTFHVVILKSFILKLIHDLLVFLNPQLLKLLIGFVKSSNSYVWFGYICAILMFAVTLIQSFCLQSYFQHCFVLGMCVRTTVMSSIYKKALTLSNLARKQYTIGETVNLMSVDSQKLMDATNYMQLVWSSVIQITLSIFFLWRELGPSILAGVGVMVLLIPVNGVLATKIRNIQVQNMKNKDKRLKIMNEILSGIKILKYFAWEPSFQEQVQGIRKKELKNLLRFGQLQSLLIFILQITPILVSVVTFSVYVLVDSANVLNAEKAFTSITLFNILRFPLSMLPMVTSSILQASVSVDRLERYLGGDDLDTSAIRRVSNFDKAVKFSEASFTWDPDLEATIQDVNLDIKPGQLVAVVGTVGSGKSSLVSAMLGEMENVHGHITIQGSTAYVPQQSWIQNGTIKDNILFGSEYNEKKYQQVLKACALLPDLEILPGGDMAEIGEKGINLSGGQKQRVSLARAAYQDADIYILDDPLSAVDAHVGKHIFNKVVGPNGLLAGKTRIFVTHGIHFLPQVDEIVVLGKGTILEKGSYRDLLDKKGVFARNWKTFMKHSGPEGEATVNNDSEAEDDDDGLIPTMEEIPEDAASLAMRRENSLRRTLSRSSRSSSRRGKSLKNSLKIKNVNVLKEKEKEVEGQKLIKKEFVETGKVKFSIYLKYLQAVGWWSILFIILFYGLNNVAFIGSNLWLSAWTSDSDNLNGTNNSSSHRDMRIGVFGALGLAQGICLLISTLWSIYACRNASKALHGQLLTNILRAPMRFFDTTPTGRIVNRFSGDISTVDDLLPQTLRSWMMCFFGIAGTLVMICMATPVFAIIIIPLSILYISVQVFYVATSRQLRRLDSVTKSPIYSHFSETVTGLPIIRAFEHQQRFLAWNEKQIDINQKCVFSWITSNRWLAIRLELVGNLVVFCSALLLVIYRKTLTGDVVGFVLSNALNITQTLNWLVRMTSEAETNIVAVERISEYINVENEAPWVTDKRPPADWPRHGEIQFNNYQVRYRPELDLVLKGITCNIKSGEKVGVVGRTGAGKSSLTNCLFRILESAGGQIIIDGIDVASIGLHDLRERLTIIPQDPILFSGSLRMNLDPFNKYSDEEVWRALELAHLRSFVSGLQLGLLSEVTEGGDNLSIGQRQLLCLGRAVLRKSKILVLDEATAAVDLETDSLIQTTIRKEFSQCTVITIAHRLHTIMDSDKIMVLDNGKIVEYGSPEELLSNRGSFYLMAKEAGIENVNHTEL
Compound,Activity [1],Activity [2]
CCCN(CCC)S(=O)(=O)c1ccc(C(=O)O)cc1 [PROBENECID],substrate [],substrate []
CN(Cc1cnc2nc(N)nc(N)c2n1)c1ccc(C(=O)N[C@@H](CCC(=O)O)C(=O)O)cc1 [METHOTREXATE],substrate [],substrate []
